Measurements: ChEMBL document CHEMBL1201862, “PubChem BioAssay data set” (2004)
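Results reflect a 48-hour exposure of cells in 96-well plates to compound at five concentrations. Abbreviation: GI50, concentration required for 50% inhibition of growth.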 Activity calls are given as the source filed them. Cut-off read from the data, not from the text of the source: active = GI50 up to about 1.1 µM and inactive = higher.

How the values were obtained:
Assay in all cases: DTP human tumour cell line panel, 48 h
MDA-MB-231 = tested on: MDA-MB-231
MDA-N = tested on: MDA-N
PC-3 = tested on: PC-3
NCI/ADR-RES = tested on: NCI/ADR-RES
UO-31 = tested on: UO-31
CCRF-CEM = tested on: CCRF-CEM
LOX IMVI = tested on: LOX IMVI
HCT-116 = tested on: HCT-116
MDA-MB-435 = tested on: MDA-MB-435
SK-MEL-28 = tested on: SK-MEL-28
SF-268 = tested on: SF-268
OVCAR-5 = tested on: OVCAR-5
SK-MEL-5 = tested on: SK-MEL-5
IGROV-1 = tested on: IGROV-1
NCI-H522 = tested on: NCI-H522
OVCAR-3 = tested on: OVCAR-3
HCT-15 = tested on: HCT-15
Hs-578T = tested on: Hs-578T
OVCAR-8 = tested on: OVCAR-8
CAKI-1 = tested on: CAKI-1
HOP-92 = tested on: HOP-92
SK-OV-3 = tested on: SK-OV-3
COLO 205 = tested on: COLO 205
SR = tested on: SR
EKVX = tested on: EKVX
SN12C = tested on: SN12C
786-0 = tested on: 786-0
Malme-3M = tested on: Malme-3M
KM12 = tested on: KM12
RPMI-8226 = tested on: RPMI-8226
HL-60 = tested on: HL-60
K562 = tested on: K562
RXF 393 = tested on: RXF 393
HCC 2998 = tested on: HCC 2998
SF-539 = tested on: SF-539
DU-145 = tested on: DU-145
SNB-19 = tested on: SNB-19
U-251 = tested on: U-251
BT-549 = tested on: BT-549
MOLT-4 = tested on: MOLT-4
NCI-H460 = tested on: NCI-H460
A549 = tested on: A549
UACC-62 = tested on: UACC-62
T47D = tested on: T47D
TK-10 = tested on: TK-10
OVCAR-4 = tested on: OVCAR-4
SF-295 = tested on: SF-295
M14 = tested on: M14
UACC-257 = tested on: UACC-257
ACHN = tested on: ACHN
HT-29 = tested on: HT-29
HOP-62 = tested on: HOP-62
MCF7 = tested on: MCF7
NCI-H23 = tested on: NCI-H23
SW-620 = tested on: SW-620
NCI-H226 = tested on: NCI-H226
SNB-75 = tested on: SNB-75
SK-MEL-2 = tested on: SK-MEL-2

O=C(C(=O)N1CCc2ccccc21)c1c[nH]c2ccccc12
GI50 (MDA-MB-231): > 10 µM (inactive) | GI50 (MDA-N): > 10 µM (inactive) | GI50 (PC-3): > 10 µM (inactive) | GI50 (NCI/ADR-RES): > 10 µM (inactive) | GI50 (UO-31): > 10 µM (inactive) | GI50 (CCRF-CEM): > 10 µM (inactive) | GI50 (LOX IMVI): > 10 µM (inactive) | GI50 (HCT-116): > 10 µM (inactive) | GI50 (MDA-MB-435): > 10 µM (inactive) | GI50 (SK-MEL-28): > 10 µM (inactive) | GI50 (SF-268): > 10 µM (inactive) | GI50 (OVCAR-5): > 10 µM (inactive) | GI50 (SK-MEL-5): > 10 µM (inactive) | GI50 (IGROV-1): > 10 µM (inactive) | GI50 (NCI-H522): > 10 µM (inactive) | GI50 (OVCAR-3): > 10 µM (inactive) | GI50 (HCT-15): > 10 µM | GI50 (Hs-578T): > 10 µM (inactive) | GI50 (OVCAR-8): > 10 µM (inactive) | GI50 (CAKI-1): > 10 µM (inactive) | GI50 (HOP-92): > 10 µM (inactive) | GI50 (SK-OV-3): > 10 µM (inactive) | GI50 (COLO 205): > 10 µM (inactive) | GI50 (SR): > 10 µM (inactive) | GI50 (EKVX): > 10 µM (inactive) | GI50 (SN12C): > 10 µM (inactive) | GI50 (786-0): > 10 µM (inactive) | GI50 (Malme-3M): > 10 µM (inactive) | GI50 (KM12): > 10 µM (inactive) | GI50 (RPMI-8226): > 10 µM (inactive) | GI50 (HL-60): > 10 µM (inactive) | GI50 (K562): > 10 µM (inactive) | GI50 (RXF 393): > 10 µM (inactive) | GI50 (HCC 2998): > 10 µM (inactive) | GI50 (SF-539): > 10 µM (inactive) | GI50 (DU-145): > 10 µM (inactive) | GI50 (SNB-19): > 10 µM (inactive) | GI50 (U-251): > 10 µM (inactive) | GI50 (BT-549): > 10 µM (inactive) | GI50 (MOLT-4): > 10 µM (inactive) | GI50 (NCI-H460): > 10 µM (inactive) | GI50 (A549): > 10 µM (inactive) | GI50 (UACC-62): > 10 µM (inactive) | GI50 (T47D): > 10 µM (inactive) | GI50 (TK-10): > 10 µM (inactive) | GI50 (OVCAR-4): > 10 µM (inactive) | GI50 (SF-295): > 10 µM (inactive) | GI50 (M14): > 10 µM (inactive) | GI50 (UACC-257): > 10 µM (inactive) | GI50 (ACHN): > 10 µM (inactive) | GI50 (HT-29): > 10 µM (inactive) | GI50 (HOP-62): > 10 µM (inactive) | GI50 (MCF7): > 10 µM (inactive) | GI50 (NCI-H23): > 10 µM (inactive) | GI50 (SW-620): > 10 µM (inactive) | GI50 (NCI-H226): > 10 µM (inactive) | GI50 (SNB-75): > 10 µM (inactive) | GI50 (SK-MEL-2): > 10 µM (inactive)
